The results in this text go back to US8598132B2, “Glycosylated indolocarbazoles, method for obtaining same and uses thereof” (Universidad de Oviedo, priority 2008, dated 2013).

A value given as a limit tells only on which side of the number the result lay.

For one test, the target named is T1, RSK1 (Homo sapiens, UniProt Q15418).
T1 construct: purchased Carna Biosciences
Nature of the test: LabChip (Caliper) kinase assay, RSK1. Type of test: biochemical. As to conditions: read-out: remaining kinase activity (in %) / percentage of inhibition; for inhibition at 0.01 µM: compound at 10 nM; for inhibition at 0.1 µM: compound at 100 nM. Here is the method:
(§1) The analysis of kinase activity described here was performed using LabChip (Caliper Life Sciences), specifically the Caliper LC3000 and the EZ Reader II instruments.
(§2) The kinase assay used measures the conversion of a fluorescent peptide (substrate) to a phosphorylated product. The reaction mixture, in a microplate well, is introduced by a capillary in a chip where the non-phosphorylated substrate and the phosphorylated product are separated by […]. The intensity of the fluorescent signal over time is related to the reaction progress. The phosphorylated product migrates quicker than the non-phosphorylated substrate and the signals of the two forms of the peptide appear as differentiated peaks. The Caliper determines the peak height and calculates the ratio of product to the peak sum (P/(P+S)). This value is used to compare wells with compounds and wells with controls and thus determine the % of inhibition for the given product.
(§3) The followings kinases were used for the enzymatic inhibition studies, between brackets the value of the Michaelis-Menten constant, Km, of the ATP (Adenosine triphosphate) for each kinase, in μM: obtained from Carna Biosciences: MAPKAPK2 (4.6), AurA (3.6), AurB (5), PKCζ (3.8), RSK1 (23.3), PRAK (5), Erk1 (33.4), PKD2 (32.1), CK1d (16.3), CHK1 (33), ABL (61.7), FYN (36), LYNa (17), CHK2 (57.8), MET (79.5), LCK (28.5), SRC (38), GSK3β (7.3), Erk2 (62.1), PKACα (1.7), AKT2 (186.1), INSR (871.8), p38a (396.5), AKT1(48), MSK1 (21.2), PKCβ2 (84.8), ROCK2 (3.3), PIM2 (4.9), AMPK (38.6), KDR (164.8), IRAK4 (196.5), SGK1 (121.8), SYK (33.5); obtained from Invitrogen: CDK2 (57.6), BTK (123), HGK (80); obtained from Upstate: MST2 (36.6), PKGα (16), PAK2 (1.9), IGF1R (320), FGFR1 (171), MARK1 (33), CAMK2δ (22.4), c-TAK1 (66), DYRK1a (18.1), CaMK4 (3.9), FLT3 (350), c-Raf (6.2), P70S6K (95).
The compounds were dissolved in 100% DMSO and were diluted at 25 times the final concentration desired for the assay. In the case of the determination of Cl50, serial dilutions were made to reach eight concentrations and give rise to the inhibition curve. 1 μL of each concentration is transferred, in duplicate to a 384-well microplate. 12 μL of enzymatic buffer is added to each well containing purified kinase (several suppliers as indicated above), 100 mM HEPES, pH 7.5, 1 mM DTT (Calbiochem), 0.002% Brij-35 (Sigma) and also in presence of 10 mM MgCl2 as cofactor, except for INSR and IRAK4 wherein 10 mM MnCl2 is used instead of MgCl2. For the kinases CAMK26 and CAMK4, 1 mM CaCl2 and 6.7 μg/mL of calmodulin are also added. For KDR kinase, 0.05% of the CHAPSO detergent is added. For the c-Raf kinase, 10 mM MnCl2 is added. For PKCβ2 0.02 μg/mL of PS/PMA is added. For PKGα se 10 μM of cGMP (cyclic guanosine monophosphate) is added. The compound and the enzyme are left for 15 minutes preincubation and, then, the following are added to each well: 12 μL of peptide buffer/ATP containing 100 mM HEPES, pH 7.5, 1.5 μM peptide marker with fluorescein (specific for the corresponding kinase), ATP (at concentration KM), and 0.002% Brij-35 to start the reaction. Generally, the reactions are incubated for 1-1.5 h at ambient temperature to obtain an adequate conversion (15-40%) of the peptide to the phosphorylated product. The reactions were ended by the addition of 45 μL of buffer containing 0 mM EDTA. The microplates were read by the LabChip 3000 using a 12-channel LabChip. The P/(P+S) values were obtained as described above and the CI50 curves were generated using XIfit. […]

The target of the next test is T2, HGK (Homo sapiens, UniProt O95819).
T2 construct: purchased Invitrogen
T2 sequence (O95819 whole entry, species assumed): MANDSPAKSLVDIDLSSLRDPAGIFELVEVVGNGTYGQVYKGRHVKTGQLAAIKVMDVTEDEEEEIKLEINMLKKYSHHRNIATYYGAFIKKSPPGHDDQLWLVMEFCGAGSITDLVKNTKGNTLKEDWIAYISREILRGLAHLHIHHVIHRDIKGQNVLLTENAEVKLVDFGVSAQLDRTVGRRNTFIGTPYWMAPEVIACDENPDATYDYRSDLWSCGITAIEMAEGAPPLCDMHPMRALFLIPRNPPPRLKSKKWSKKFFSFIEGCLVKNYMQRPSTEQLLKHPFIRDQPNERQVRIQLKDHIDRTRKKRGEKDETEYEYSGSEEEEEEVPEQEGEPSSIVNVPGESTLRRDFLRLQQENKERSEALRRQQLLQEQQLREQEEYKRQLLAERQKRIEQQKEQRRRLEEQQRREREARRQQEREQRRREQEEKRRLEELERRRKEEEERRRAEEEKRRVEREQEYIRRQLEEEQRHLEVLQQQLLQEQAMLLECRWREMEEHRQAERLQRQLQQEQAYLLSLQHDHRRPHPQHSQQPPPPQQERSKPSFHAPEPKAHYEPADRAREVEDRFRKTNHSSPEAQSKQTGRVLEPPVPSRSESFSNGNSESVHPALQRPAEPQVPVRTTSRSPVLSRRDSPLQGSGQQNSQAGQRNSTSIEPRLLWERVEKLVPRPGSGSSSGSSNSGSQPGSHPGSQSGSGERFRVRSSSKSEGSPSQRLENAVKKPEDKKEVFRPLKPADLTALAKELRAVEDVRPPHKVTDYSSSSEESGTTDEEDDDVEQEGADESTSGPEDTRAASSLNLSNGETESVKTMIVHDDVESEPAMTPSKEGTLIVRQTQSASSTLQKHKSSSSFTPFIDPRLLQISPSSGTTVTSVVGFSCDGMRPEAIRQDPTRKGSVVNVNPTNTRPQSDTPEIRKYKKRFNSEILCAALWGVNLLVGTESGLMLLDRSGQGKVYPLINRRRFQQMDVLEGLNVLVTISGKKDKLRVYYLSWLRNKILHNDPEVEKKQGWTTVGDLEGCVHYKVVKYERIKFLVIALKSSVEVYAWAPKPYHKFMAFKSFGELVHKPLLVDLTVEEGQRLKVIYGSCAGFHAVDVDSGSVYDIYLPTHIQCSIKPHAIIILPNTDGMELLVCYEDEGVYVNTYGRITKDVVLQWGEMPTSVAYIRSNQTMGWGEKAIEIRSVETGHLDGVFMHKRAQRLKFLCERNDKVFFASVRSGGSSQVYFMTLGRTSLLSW
Nature of the test: LabChip (Caliper) kinase assay, HGK. The format is biochemical. As to conditions: for inhibition at 0.01 µM: compound at 10 nM; for inhibition at 0.01 µM / inhibition at 0.1 µM: read-out: remaining kinase activity (in %) / percentage of inhibition; for inhibition at 0.1 µM: compound at 100 nM; for IC50: ATP at Km, read-out: CI50 (the source's name). Here is the method: as §1, §2, §3
The compounds were dissolved in 100% DMSO and were diluted at 25 times the final concentration desired for the assay. In the case of the determination of Cl50, serial dilutions were made to reach eight concentrations and give rise to the inhibition curve. 1 μL of each concentration is transferred, in duplicate to a 384-well microplate. 12 μL of enzymatic buffer is added to each well containing purified kinase (several suppliers as indicated above), 100 mM HEPES, pH 7.5, 1 mM DTT (Calbiochem), 0.002% Brij-35 (Sigma) and also in presence of 10 mM MgCl2 as cofactor, except for INSR and IRAK4 wherein 10 mM MnCl2 is used instead of MgCl2. For the kinases CAMK26 and CAMK4, 1 mM CaCl2 and 6.7 μg/mL of calmodulin are also added. For KDR kinase, 0.05% of the CHAPSO detergent is added. For the c-Raf kinase, 10 mM MnCl2 is added. For PKCβ2 0.02 μg/mL of PS/PMA is added. For PKGα se 10 μM of cGMP (cyclic guanosine monophosphate) is added. The compound and the enzyme are left for 15 minutes preincubation and, then, the following are added to each well: 12 μL of peptide buffer/ATP containing 100 mM HEPES, pH 7.5, 1.5 μM peptide marker with fluorescein (specific for the corresponding kinase), ATP (at concentration KM), and 0.002% Brij-35 to start the reaction. Generally, the reactions are incubated for 1-1.5 h at ambient temperature to obtain an adequate conversion (15-40%) of the peptide to the phosphorylated product. The reactions were ended by the addition of 45 μL of buffer containing 0 mM EDTA. The microplates were read by the LabChip 3000 using a 12-channel LabChip. The P/(P+S) values were obtained as described above and the CI50 curves were generated using XIfit.
Table 9a has the 0150 data obtained in pairs of compound-kinase selected from the compounds of formula (VII), (VIII), (IX), (XVI), (XVII) and (XVIII) after taking inhibition measurements at 100 nM and 10 nM. Those couples that provide >70% of inhibition at 10 nM were consider for measuring its IC50. […]

T1 sequence (Q15418 whole entry): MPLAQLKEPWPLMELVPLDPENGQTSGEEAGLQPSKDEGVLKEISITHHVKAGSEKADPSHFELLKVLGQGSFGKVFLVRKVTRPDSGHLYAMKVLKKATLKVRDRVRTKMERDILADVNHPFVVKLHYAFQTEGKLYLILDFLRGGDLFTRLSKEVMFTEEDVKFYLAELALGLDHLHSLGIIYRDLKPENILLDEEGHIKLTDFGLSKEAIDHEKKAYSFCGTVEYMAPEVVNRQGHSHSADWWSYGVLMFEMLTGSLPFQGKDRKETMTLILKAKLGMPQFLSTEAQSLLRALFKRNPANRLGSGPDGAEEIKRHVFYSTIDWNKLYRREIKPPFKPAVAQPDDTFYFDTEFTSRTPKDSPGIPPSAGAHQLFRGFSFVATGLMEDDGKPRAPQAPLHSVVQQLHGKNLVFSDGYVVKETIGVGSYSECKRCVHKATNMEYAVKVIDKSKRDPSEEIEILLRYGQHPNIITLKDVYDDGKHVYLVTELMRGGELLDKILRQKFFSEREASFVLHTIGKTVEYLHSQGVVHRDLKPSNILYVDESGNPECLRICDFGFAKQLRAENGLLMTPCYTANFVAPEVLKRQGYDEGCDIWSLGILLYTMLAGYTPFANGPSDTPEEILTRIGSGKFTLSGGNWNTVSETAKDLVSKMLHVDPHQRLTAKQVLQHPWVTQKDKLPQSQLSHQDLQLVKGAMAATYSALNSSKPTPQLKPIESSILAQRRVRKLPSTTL

Turning to `C[C@@H]1O[C@@H](n2c3ccccc3c3c4c(c5c6ccccc6[nH]c5c32)C(=O)NC4=O)[C@H](O)[C@H](O)[C@H]1O` [formula (III), N^13-1′-β-L-rhamnosylarcyriaflavin], on RSK1, the inhibition at 0.01 µM worked out at 2% and the inhibition at 0.1 µM is 20%. On HGK, the inhibition at 0.01 µM stood at 30% and the inhibition at 0.1 µM was 89%.
As to `C[C@@H]1O[C@@H](n2c3ccccc3c3c4c(c5c6ccccc6[nH]c5c32)C(=O)NC4=O)C[C@H](O)[C@H]1O` [formula (IV), N^13-1′-β-L-olivosylarcyriaflavin], the results for the inhibition at 0.01 µM on RSK1 and on HGK were 14% and 9%, respectively. Further, the values for the inhibition at 0.1 µM at RSK1 and at HGK were 77% and 62%, respectively.
With `C[C@]12O[C@H](C[C@@H](O)[C@H]1O)n1c3ccccc3c3c4c(c5c6ccccc6n2c5c31)C(=O)NC4=O` [formula (IX), N^12-5′(S)-N^13-1′-(R)-L-digitoxosylarcyriaflavin], at HGK, the IC50 is over 10 nM.
As for `C[C@@H]1O[C@@H](n2c3ccccc3c3c4c(c5c6ccccc6[nH]c5c32)C(=O)NC4=O)C[C@@H](O)[C@H]1O` [formula (V), N^13-1′-β-L-digitoxosylarcyriaflavin], at RSK1, the inhibition at 0.01 µM stood at 38% and the inhibition at 0.1 µM is 77%. Further, at HGK, the inhibition at 0.01 µM amounted to 54% and the inhibition at 0.1 µM was determined as 90%.
In the same order, the values of `C[C@H]1O[C@@H](n2c3ccccc3c3c4c(c5c6ccccc6[nH]c5c32)C(=O)NC4=O)C[C@@H](O)[C@@H]1O` [formula (VI), N^13-1′-β-D-olivosylarcyriaflavin] are 31%, 74%, 35% and 83%.
With `C[C@]12O[C@H]([C@H](O)[C@H](O)[C@H]1O)n1c3ccccc3c3c4c(c5c6ccccc6n2c5c31)C(=O)NC4=O` [formula (VII), N^12-5′(S)-N^13-1′-(R)-L-rhamnosylarcyriaflavin], on HGK, the IC50 is 0.78 nM.
For the compound `C[C@@H]1O[C@@H](n2c3ccccc3c3c4c(c5c6ccccc6[nH]c5c32)CNC4=O)[C@H](O)[C@H](O)[C@H]1O` [formula (XII), N^13-1′-β-L-rhamnosyl-k252c], on RSK1, the inhibition at 0.01 µM was -4% and the inhibition at 0.1 µM worked out at 7%. At HGK, the inhibition at 0.01 µM was 44% and the inhibition at 0.1 µM was found to be 91%.
In the case of `C[C@@H]1O[C@@H](n2c3ccccc3c3c4c(c5c6ccccc6[nH]c5c32)CNC4=O)C[C@H](O)[C@H]1O` [formula (XIII), N^13-1′-β-L-olivosyl-k252c], the inhibition at 0.01 µM amounted to 7% at RSK1 and 16% on HGK. Also, the inhibition at 0.1 µM at RSK1 came out at 56%; at HGK it was 76%.
The like results for `C[C@@H]1O[C@@H](n2c3ccccc3c3c4c(c5c6ccccc6[nH]c5c32)CNC4=O)C[C@@H](O)[C@H]1O` [formula (XIV), N^13-1′-β-L-digitoxosyl-k252c] were, in that order, -1%, 20%, 22% and 78%.
In the same order, the values of `C[C@H]1O[C@@H](n2c3ccccc3c3c4c(c5c6ccccc6[nH]c5c32)CNC4=O)C[C@@H](O)[C@@H]1O` [formula (XV), N^13-1′-β-D-olivosyl-k252c] are -1%, 36%, 31% and 89%.
Consider `C[C@]12O[C@H](C[C@@H](O)[C@H]1O)n1c3ccccc3c3c4c(c5c6ccccc6n2c5c31)CNC4=O` [formula (XVIII), N^12-5′(S)-N^13-1′-(R)-L-digitoxosyl-k252c], for which the IC50 on HGK is over 10 nM.
